Assay results reported in article PMC10611578, “Aβ1-6A2V(D) peptide, effective on Aβ aggregation, inhibits tau misfolding and protects the brain after traumatic brain injury” (Molecular Psychiatry, 2023).
Square brackets hold non-standard residues; d marks the D form. Peptide text beside a SMILES is read from it.

Tested on: tau (P301L mouse brain homogenate)
Experiment: Western blot of total tau level in P301L brain lysate
Assay type: biochemical, human tau with P301L mutation, JNPL3 mice
Details: 50 µM, 2 h at 25 °C, 30 µg protein/100 µL, PBS pH 7.4, DAKO/actin band; mean ± SD, N = 3, p < 0.05
From the text: Male JNPL3 mice expressing 0N4R human tau with the P301L mutation (P301L) were obtained from Taconic Biosciences (New York, USA) (Tau Model 2508). Controls were non-transgenic (Non-tg) male mice with the same mixed C57BL/6, DBA/2, SW genetic background as P301L mice. Triple transgenic mice harboring human PS1(M146 V), APP(SW), and MAPT(P301L) transgenes, referred to as 3xTg-AD, were kindly provided by Dr. Oddo [34]. Male and female C57BL/6 J mice, referred to as wild type (WT), were purchased from Envigo (Italy).
Fig. 2 Effect of Aβ1-6A2V-TAT(D) on the toxicity caused in C. elegans by misfolded tau in P301L and TBI brain homogenates. A Brains from P301L mice were homogenized in 10 mM PBS, pH 7.4, and given to worms alone or in the presence of Aβ1-6A2V-TAT(D). B Worms were administered with brain homogenate (30 µg protein/100 worms/100 µL) in the absence or presence of Aβ1-6A2V-TAT(D) (0-200 µM). […] E Representative western blotting showing the total level of tau and tau quantification expressed as the mean volume of the DAKO band immunoreactivity/actin band. […] The reaction was then stopped, and samples were analyzed by western blot. […]
Lysates from brain homogenates of P301L mice (30 µg protein/100 µL) incubated for 2 h at 25°C with 50 µM Aβ1-6A2V-TAT(D), 50 µM Aβ1-6A2V(D), 50 µM TAT or 10 mM PBS, pH 7.4, were analyzed by immunoblotting using 10% SDS-PAGE gel and Western blotting analysis. […]

CC(C)[C@@H](NC(=O)[C@H](N)CC(=O)O)C(=O)N[C@H](CCC(=O)O)C(=O)N[C@H](Cc1ccccc1)C(=O)N[C@H](CCCNC(=N)N)C(=O)N[C@H](Cc1c[nH]cn1)C(=O)NCC(=O)NCC(=O)NCC(=O)NCC(=O)NCC(=O)N[C@H](CCCNC(=N)N)C(=O)N[C@H](CCCCN)C(=O)N[C@H](CCCCN)C(=O)N[C@H](CCCNC(=N)N)C(=O)N[C@H](CCCNC(=N)N)C(=O)N[C@H](CCC(N)=O)C(=O)N[C@H](CCCNC(=N)N)C(=O)N[C@H](CCCNC(=N)N)C(=O)N[C@H](CCCNC(=N)N)C(=O)O [Aβ1-6A2V-TAT(D)] (H-[dD][dV][dE][dF][dR][dH]GGGGG[dR][dK][dK][dR][dR][dQ][dR][dR][dR]-OH; N-terminus assumed)
Total tau protein level in P301L brain homogenate: significantly reduced the tau protein level
